Reference: PubChem BioAssay AID1918995 (Molecular Pharmacology Branch, DTP, NCI, 2023)
Where “and” joins values, the source holds several entries; their conditions need not be identical. Equal values may be shown once.

System: 324938-238-R-J1-PDC complex spheroid growth, % test/control
Experiment: Anticancer human tumor 324938-238-R-J1-PDC patient-derived bladder carcinoma cell line growth inhibition [AhR]
Settings: for IC50: curve of first compound; for viability, T/C: stronger effect = lower value
How it was run: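 Agents were dosed in half-log steps down from roughly clinical Cmax, or from 10 microM where Cmax was unknown, alone and with AhR antagonists. Read-out: percent test/control growth of tumor spheroids containing HUVEC and MSC stromal cells.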

[1] = second compound 0.1 µM, first compound 0.0316 µM
[2] = second compound 0.1 µM, first compound 0.1 µM
[3] = second compound 0.1 µM, first compound 0.316 µM
[4] = second compound 0.1 µM, first compound 1 µM
[5] = second compound 0.1 µM, first compound 3.16 µM
[6] = second compound 0.1 µM, first compound 10 µM
[7] = second compound 0.316 µM, first compound 0.0316 µM
[8] = second compound 0.316 µM, first compound 0.1 µM
[9] = second compound 0.316 µM, first compound 0.316 µM
[10] = second compound 0.316 µM, first compound 1 µM
[11] = second compound 0.316 µM, first compound 3.16 µM
[12] = second compound 0.316 µM, first compound 10 µM
[13] = second compound 1 µM, first compound 0.0316 µM
[14] = second compound 1 µM, first compound 0.1 µM
[15] = second compound 1 µM, first compound 0.316 µM
[16] = second compound 1 µM, first compound 1 µM
[17] = second compound 1 µM, first compound 3.16 µM
[18] = second compound 1 µM, first compound 10 µM
[19] = second compound 3.16 µM, first compound 0.0316 µM
[20] = second compound 3.16 µM, first compound 0.1 µM
[21] = second compound 3.16 µM, first compound 0.316 µM
[22] = second compound 3.16 µM, first compound 1 µM
[23] = second compound 3.16 µM, first compound 3.16 µM
[24] = second compound 3.16 µM, first compound 10 µM
[25] = second compound 10 µM, first compound 0.0316 µM
[26] = second compound 10 µM, first compound 0.1 µM
[27] = second compound 10 µM, first compound 0.316 µM
[28] = second compound 10 µM, first compound 1 µM
[29] = second compound 10 µM, first compound 3.16 µM
[30] = second compound 10 µM, first compound 10 µM
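Further: spheroids exposed to agents for seven days before viability read.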

`CC(C)CC(NC(=O)C(Cc1ccccc1)NC(=O)c1cnccn1)B(O)O` (stereo unspecified) + CC(CO)NC(=O)c1cc(-c2ccc(Cl)cc2)nn(-c2cnn(C)c2)c1=O was tested, and the IC50 (second compound 0.1 µM) was 0.00178 µM, the IC50 (second compound 0.316 µM) was 0.00169 µM and the IC50 (second compound 1 µM) was 0.00175 µM. It also gave an IC50 (second compound 3.16 µM) of 0.0014 µM, an IC50 (second compound 10 µM) of 0.00137 µM and a viability, T/C (second compound 0.1 µM, first compound 0.000949 µM) of 89%. For the same compound, the viability, T/C (second compound 0.1 µM, first compound 0.003 µM) was 18.1%, the viability, T/C (second compound 0.1 µM, first compound 0.00949 µM) was 0.1% and the viability, T/C (second compound 0.1 µM, first compound 0.03 µM) was 0.06%. It also gave a viability, T/C (second compound 0.1 µM, first compound 0.0949 µM) of 0.07%, a viability, T/C (second compound 0.1 µM, first compound 0.3 µM) of 0.21% and a viability, T/C (second compound 0.316 µM, first compound 0.000949 µM) of 85.8%. For the same compound, the viability, T/C (second compound 0.316 µM, first compound 0.003 µM) was 14.3%, the viability, T/C (second compound 0.316 µM, first compound 0.00949 µM) was 0.09% and the viability, T/C (second compound 0.316 µM, first compound 0.03 µM) was 0.06%. The viability, T/C (second compound 0.316 µM, first compound 0.0949 µM) was 0.07%, the viability, T/C (second compound 0.316 µM, first compound 0.3 µM) was 0.16% and the viability, T/C (second compound 1 µM, first compound 0.000949 µM) was 86.2%. The viability, T/C (second compound 1 µM, first compound 0.003 µM) was 18.1%, the viability, T/C (second compound 1 µM, first compound 0.00949 µM) was 0.13% and the viability, T/C (second compound 1 µM, first compound 0.03 µM) was 0.12%. For the same compound, the viability, T/C (second compound 1 µM, first compound 0.0949 µM) was 0.05%, the viability, T/C (second compound 1 µM, first compound 0.3 µM) was 0.17% and the viability, T/C (second compound 3.16 µM, first compound 0.000949 µM) was 69.1%. For the same compound, the viability, T/C (second compound 3.16 µM, first compound 0.003 µM) was 13.6%, the viability, T/C (second compound 3.16 µM, first compound 0.00949 µM) was 0.13% and the viability, T/C (second compound 3.16 µM, first compound 0.03 µM) was 0.07%. The viability, T/C (second compound 3.16 µM, first compound 0.0949 µM) was 0.07%, the viability, T/C (second compound 3.16 µM, first compound 0.3 µM) was 0.17% and the viability, T/C (second compound 10 µM, first compound 0.000949 µM) was 67.1%. The viability, T/C (second compound 10 µM, first compound 0.003 µM) was 14.8%, the viability, T/C (second compound 10 µM, first compound 0.00949 µM) was 0.23% and the viability, T/C (second compound 10 µM, first compound 0.03 µM) was 0.2%. The viability, T/C (second compound 10 µM, first compound 0.0949 µM) was 0.2% and the viability, T/C (second compound 10 µM, first compound 0.3 µM) was 0.32%.

`NS(=O)(=O)OCC1CC(n2ccc3c(NC4CCc5ccccc54)ncnc32)CC1O` (stereo unspecified) + CC(CO)NC(=O)c1cc(-c2ccc(Cl)cc2)nn(-c2cnn(C)c2)c1=O showed an IC50 (second compound 0.1 µM) of 0.534 µM, an IC50 (second compound 0.316 µM) of 0.558 µM and an IC50 (second compound 1 µM) of 0.586 µM. For the same compound, the IC50 (second compound 3.16 µM) was 0.45 µM, the IC50 (second compound 10 µM) was 0.379 µM and the viability, T/C [1] was 90.3%. For the same compound, the viability, T/C [2] was 96.4%, the viability, T/C [3] was 66.8% and the viability, T/C [4] was 31.1%. For the same compound, the viability, T/C [5] was 25.3%, the viability, T/C [6] was 28.9% and the viability, T/C [7] was 88.5%. For the same compound, the viability, T/C [8] was 101%, the viability, T/C [9] was 64% and the viability, T/C [10] was 37.3%. For the same compound, the viability, T/C [11] was 21.9%, the viability, T/C [12] was 27.1% and the viability, T/C [13] was 77.1%. For the same compound, the viability, T/C [14] was 82.2%, the viability, T/C [15] was 64.1% and the viability, T/C [16] was 38.2%. For the same compound, the viability, T/C [17] was 22.9%, the viability, T/C [18] was 29.1% and the viability, T/C [19] was 69.9%. It also gave a viability, T/C [20] of 67.8%, a viability, T/C [21] of 55.4% and a viability, T/C [22] of 37.3%. It also gave a viability, T/C [23] of 27.5%, a viability, T/C [24] of 26.9% and a viability, T/C [25] of 61.5%. The viability, T/C [26] was 58.6%, the viability, T/C [27] was 51.5% and the viability, T/C [28] was 40.8%. It also gave a viability, T/C [29] of 29.1% and a viability, T/C [30] of 30.5%.

Work on `Nc1ccccc1NC(=O)c1ccc(CNC(=O)OCc2cccnc2)cc1` + Cc1cncc(-c2nc(NCCc3c[nH]c4ccccc34)c3ncn(C(C)C)c3n2)c1 yielded an IC50 (second compound 0.1 µM) of 1.74 µM, an IC50 (second compound 0.316 µM) of 4.61 µM and an IC50 (second compound 1 µM) of 3.44 µM. For the same compound, the IC50 (second compound 3.16 µM) was 4.1 µM, the IC50 (second compound 10 µM) was less than 0.0316 µM and the viability, T/C [1] was 87.7%. For the same compound, the viability, T/C [2] was 91%, the viability, T/C [3] was 97.5% and the viability, T/C [4] was 48.9%. It also gave a viability, T/C [5] of 43.2%, a viability, T/C [6] of 6.54% and a viability, T/C [7] of 67.6%. The viability, T/C [8] was 104%, the viability, T/C [9] was 79.5% and the viability, T/C [10] was 83.4%. For the same compound, the viability, T/C [11] was 72.2%, the viability, T/C [12] was 4.51% and the viability, T/C [13] was 105%. It also gave a viability, T/C [14] of 89.6%, a viability, T/C [15] of 79.8% and a viability, T/C [16] of 78.5%. It also gave a viability, T/C [17] of 57.8%, a viability, T/C [18] of 3.52% and a viability, T/C [19] of 64.2%. It also gave a viability, T/C [20] of 61%, a viability, T/C [21] of 62.3% and a viability, T/C [22] of 65.3%. For the same compound, the viability, T/C [23] was 68.1%, the viability, T/C [24] was 1.13% and the viability, T/C [25] was 2.83%. For the same compound, the viability, T/C [26] was 3.36%, the viability, T/C [27] was 4.55% and the viability, T/C [28] was 1.45%. It also gave a viability, T/C [29] of 6% and a viability, T/C [30] of 0.4%.

With `O=C(c1cc(Cc2n[nH]c(=O)c3ccccc23)ccc1F)N1CCN(C(=O)C2CC2)CC1` + Cc1cncc(-c2nc(NCCc3c[nH]c4ccccc34)c3ncn(C(C)C)c3n2)c1 the IC50 (second compound 0.1 µM) was greater than 10 µM, the IC50 (second compound 0.316 µM) was greater than 10 µM and the IC50 (second compound 1 µM) was greater than 10 µM. It also gave an IC50 (second compound 3.16 µM) greater than 10 µM, an IC50 (second compound 10 µM) of less than 0.0316 µM and a viability, T/C [1] of 106%. The viability, T/C [2] was 96.6%, the viability, T/C [3] was 78.3% and the viability, T/C [4] was 71.6%. For the same compound, the viability, T/C [5] was 72.5%, the viability, T/C [6] was 79.5% and the viability, T/C [7] was 97.2%. For the same compound, the viability, T/C [8] was 115%, the viability, T/C [9] was 105% and the viability, T/C [10] was 97.2%. The viability, T/C [11] was 92.3%, the viability, T/C [12] was 74.4% and the viability, T/C [13] was 78.4%. It also gave a viability, T/C [14] of 106%, a viability, T/C [15] of 91% and a viability, T/C [16] of 61.5%. The viability, T/C [17] was 72%, the viability, T/C [18] was 59.6% and the viability, T/C [19] was 78.4%. For the same compound, the viability, T/C [20] was 66.2%, the viability, T/C [21] was 84.3% and the viability, T/C [22] was 68.2%. For the same compound, the viability, T/C [23] was 77.7%, the viability, T/C [24] was 67.6% and the viability, T/C [25] was 5.77%. It also gave a viability, T/C [26] of 4.45%, a viability, T/C [27] of 2.26% and a viability, T/C [28] of 4.78%. It also gave a viability, T/C [29] of 4.97% and a viability, T/C [30] of 8.77%.

`COc1ccc([C@@H](O)c2cc(-c3ncnc4cc(N5CCOCC5)ccc34)c(F)cc2Cl)nn1` + CC(CO)NC(=O)c1cc(-c2ccc(Cl)cc2)nn(-c2cnn(C)c2)c1=O was tested, and the IC50 (second compound 0.1 µM) was greater than 10 µM, the IC50 (second compound 0.316 µM) was greater than 10 µM and the IC50 (second compound 1 µM) was greater than 10 µM. For the same compound, the IC50 (second compound 3.16 µM) was greater than 10 µM, the IC50 (second compound 10 µM) was greater than 10 µM and the viability, T/C [1] was 99.4%. It also gave a viability, T/C [2] of 110%, a viability, T/C [3] of 90.2% and a viability, T/C [4] of 81.8%. For the same compound, the viability, T/C [5] was 78.5%, the viability, T/C [6] was 66.5% and the viability, T/C [7] was 89.4%. The viability, T/C [8] was 93.4%, the viability, T/C [9] was 96.8% and the viability, T/C [10] was 76.4%. It also gave a viability, T/C [11] of 71.6%, a viability, T/C [12] of 59.5% and a viability, T/C [13] of 88.8%. For the same compound, the viability, T/C [14] was 88.7%, the viability, T/C [15] was 91.6% and the viability, T/C [16] was 70.6%. It also gave a viability, T/C [17] of 59.5%, a viability, T/C [18] of 60.1% and a viability, T/C [19] of 75.2%. It also gave a viability, T/C [20] of 71.1%, a viability, T/C [21] of 68.3% and a viability, T/C [22] of 60%. For the same compound, the viability, T/C [23] was 63.6%, the viability, T/C [24] was 51.8% and the viability, T/C [25] was 70.7%. It also gave a viability, T/C [26] of 65.5%, a viability, T/C [27] of 63.8% and a viability, T/C [28] of 56.1%. It also gave a viability, T/C [29] of 55% and a viability, T/C [30] of 55.8%.

`CC1COCCN1c1cc(-c2ccnn2C)c2ccnc(-c3ccn[nH]3)c2n1` (stereo unspecified) was tested, and the viability, T/C (compound 0.00316 µM) was 98.3% and 108% and 107%, the viability, T/C (compound 0.01 µM) was 92.6% and 112% and 110% and the viability, T/C (compound 0.0316 µM) was 67.5% and 99.7% and 66.6%. The viability, T/C (compound 0.1 µM) was 55.1% and 76.3% and 45%, the viability, T/C (compound 0.316 µM) was 83.7% and 48.9% and 31.1% and the viability, T/C (compound 1 µM) was 68.1% and 27.7% and 19.9%.
